Patent US20110177155A1, “METHODS OF DELIVERY OF AGENTS TO LEUKOCYTES AND ENDOTHELIAL CELLS” (IMMUNE DISEASE INSTITUTE, INC., priority 2007, published 2011)

Assays:
[1] = system: siRNA-mediated mRNA degradation; details: cited from earlier work
INF-β, OAS1 and STAT1 = assay: Interferon assay (quantitative RT-PCR of IFN-responsive genes in splenocytes); type: cell-based, mouse
Experimental: Spleenocytes (1×10^6 cells/ml) were mock treated or treated with β7 It-sNP and luciferase-siRNA (1000 pmol) or 5 μg/ml poly (I:C). After 48 h RNA was isolated and analyzed by quantitative RT-PCR for induction of IFN or interferon responsive genes as described below.
Total RNA (1 μg) isolated using RNeasy RNA isolation kit (Qiagen) or for tissues, RNAlater RNA stabilization reagent was used followed by RNeasy fibrous tissue mini kit (Qiagen) and reverse transcribed using Superscript III (Invitrogen) and random hexamers, according to the manufacturer's protocol. […] SYBR green (Molecular Probes) was used to detect PCR products. All reactions were done in a 25 μl reaction volume in triplicate. Primers for mouse GAPDH, STAT1, OAS1 and INF β were previously described (Song et al., 2005). The following primer pairs have been used: IL-12p40: Forward: 5′-[…]-3′ (SEQ ID NO:9); Reverse: 5′-[…]-3′ (SEQ ID NO:10); TNF α: Forward 5′-[…]-3′ (SEQ ID NO:11), Reverse 5′-[…]-3′ (SEQ ID NO:12); Cyclin D1: Forward 5′-CTTCCTCTCCAAAATGCCAG-3′ (SEQ ID NO:13), Reverse 5′-AGAGATGGAAGGGGGAAAGA-3′ (SEQ ID NO:14). PCR parameters consisted of 5 min of Taq activation at 95° C., followed by 40 cycles of PCR at 95° C.×20 sec, 60° C.×30 sec, and 69° C.×20 sec. Standard curves were generated and the relative amount of target gene mRNA was normalized to GAPDH mRNA. […]

Compound	enhancement of siRNA-mediated mRNA degradation ([1]; with siRNA)	effect in mRNA degradation by itself ([1]; without siRNA)	induction of interferon-responsive genes (IRG: INF-β, OAS1, STAT1 mRNA) (INF-β, OAS1 and STAT1)
CCn1cc(C(=O)O)c(=O)c2cc(F)c(N3CCNCC3)nc21 [Enoxacin]	enhances siRNA-mediated degradation	essentially no effect	
poly (I:C)			induced
